Earlier results on 17 molecules are cited in paper PMC8435859 (Frontiers in Cellular and Infection Microbiology, 2021).

Broadly, the GI50 is the concentration giving 50% growth inhibition. A word on the Kd: it is the concentration at which binding is half-saturated.

A value given as a limit tells only on which side of the number the result lay.

One series has as its system cytochrome P450 1A1. Details: method as in Jo SP, Kim JK, Lim YH. Planta Med. 2014 Aug;80(13):1067-71. The following applies: mechanism-based, selective inactivator; ref Jo SP, Kim JK, Lim YH. Planta Med. 2014 Aug;80(13):1067-71; read-out: IC50, cytochrome P450 1A1 inactivation; cited from earlier work.
For the next series, the system named is HL-60R. The arrangement: method as in Jo SP, Kim JK, Lim YH. Planta Med. 2014 Aug;80(13):1067-71. The conditions noted are these: HL-60R cancer cell line; ref Jo SP, Kim JK, Lim YH. Planta Med. 2014 Aug;80(13):1067-71; read-out: IC50, proliferation of HL-60R; cited from earlier work.
A further series relates to HepG2. Details: method as in Jo SP, Kim JK, Lim YH. Planta Med. 2014 Aug;80(13):1067-71. The conditions noted are these: HepG2 cancer cell line; ref Jo SP, Kim JK, Lim YH. Planta Med. 2014 Aug;80(13):1067-71; read-out: IC50, proliferation of HepG2; cited from earlier work.
The next series has as its system B16F10 cell. The arrangement: method as in ref Abe F, Nagao T, Okabe H. Biological & Pharmaceutical Bulletin, 2002, 25(7):920-922. The following applies: ref Abe F, Nagao T, Okabe H. Biological & Pharmaceutical Bulletin, 2002, 25(7):920-922, read-out: GI50 against B16F10 cell; cited from earlier work.
A further series relates to fatty acid synthase. Details: method as in Tian, WX. Current Medicinal Chemistry, 2006, 13 (8): 967–977. The conditions noted are these: ref Tian, WX. Current Medicinal Chemistry, 2006, 13 (8): 967–977; cited from earlier work.
The next series relates to PTP1B. The arrangement: method as in Xu F, Yang L, Huang X, et al. Mol Divers. The conditions noted are these: ref Xu F, Yang L, Huang X, et al. Mol Divers.; read-out: IC50, PTP1B inhibition; cited from earlier work.
Another series relates to hepatitis B virus (HBV). Details: method as in Abdelwahed A, et al. Chem Biol Interact. 2007. The following applies: at a concentration of 4 microg/ml; library annotation; ref Abdelwahed A, et al. Chem Biol Interact. 2007; cited from earlier work.
Series [1] relates to nuclear factor of activated T cells (NFAT) transcription factor. Details: method as in Phan, C., et al. Biofactors, 2016. The conditions noted are these: vendor library annotation, ref Phan, C., et al. Biofactors, 2016; cited from earlier work.
The next series deals with β-secretase (BACE1). The arrangement: method as in Murakami, A., et al. Carcinogenesis 21(10), 1843-1850 (2000). The following applies: ref Murakami, A., et al. Carcinogenesis 21(10), 1843-1850 (2000); cited from earlier work.
For another series, the target named is lipase. Details: method as in Tao J, et al. Zhongguo Zhong Yao Za Zhi. 2011. The conditions noted are these: vendor library annotation, ref Tao J, et al. Zhongguo Zhong Yao Za Zhi. 2011, read-out: IC5 (lipase inhibitory activity); cited from earlier work.
Series [2] relates to T. castaneum adults. Details: method as in Tao J, et al. Zhongguo Zhong Yao Za Zhi. 2011. The conditions noted are these: 0.63 μg/cm, vendor library annotation, ref Tao J, et al. Zhongguo Zhong Yao Za Zhi. 2011; cited from earlier work.
For series [3], the system named is T. castaneum adults. The arrangement: method as in Tao J, et al. Zhongguo Zhong Yao Za Zhi. 2011. The conditions noted are these: vendor library annotation, ref Tao J, et al. Zhongguo Zhong Yao Za Zhi. 2011; cited from earlier work.
The next series concerns the target aldose reductase. The conditions noted are these: recombinant human aldose reductase; library annotation; ref Huang H et al., Journal of Agricultural and Food Chemistry, 2011; read-out: inhibition of recombinant human aldose reductase, IC5 value; cited from earlier work.
In another series the test system is PGE2 release. Details: method as in ref Huang H et al., Journal of Agricultural and Food Chemistry, 2011. The following applies: library annotation; ref Huang H et al., Journal of Agricultural and Food Chemistry, 2011; cited from earlier work.
Another series has as its system HeLa cells. Details: method as in Wu ZT, et al. Acta Pharmacol Sin. 2014 Sep;35(9):1188-98. The following applies: ref Wu ZT, et al. Acta Pharmacol Sin. 2014 Sep;35(9):1188-98, read-out: IC50, autophagy followed by apoptotic cell death; cited from earlier work.
Another series deals with BT474 cells. Details: method as in Wu ZT, et al. Acta Pharmacol Sin. 2014 Sep;35(9):1188-98. The conditions noted are these: ref Wu ZT, et al. Acta Pharmacol Sin. 2014 Sep;35(9):1188-98, read-out: IC50, cellular response via inhibition of mTORC1 and induction of ER stress; cited from earlier work.
A further series relates to MDAMB231. Details: method as in Wu ZT, et al. Acta Pharmacol Sin. 2014 Sep;35(9):1188-98. The following applies: ref Wu ZT, et al. Acta Pharmacol Sin. 2014 Sep;35(9):1188-98, read-out: IC50, cellular response via inhibition of mTORC1 and induction of ER stress; cited from earlier work.
The next series deals with tyrosinase. The arrangement: method as in Boissy RE, et al. Exp Dermatol, 2005, 14(8), 601-608. The following applies: reversible inhibition; ref Boissy RE, et al. Exp Dermatol, 2005, 14(8), 601-608; cited from earlier work.
For a further series, the system named is seed germination. Details: method as in Kim T K, Park K S. Cytokine, 2015, 76(2). The conditions noted are these: at 3 mM concentration; ref Kim T K, Park K S. Cytokine, 2015, 76(2); cited from earlier work.
The subject of another series is cyclin-dependent kinases. The following applies: read-out: IC50, cyclin-dependent kinases; ref Hoessel R, et al. Nat Cell Biol, 1999, 1(1), 60-67; cited from earlier work.
A further series has as its system GSK-3β. The following applies: read-out: IC50, GSK-3β; ref Hoessel R, et al. Nat Cell Biol, 1999, 1(1), 60-67; cited from earlier work.
The next series concerns TRPA1. Details: method as in López-Jiménez et al., European Journal of Nutrition, 2013. The conditions noted are these: library annotation; ref López-Jiménez et al., European Journal of Nutrition, 2013; read-out: agonist of TRPA1, EC5 value; cited from earlier work.
Series [4] has as its target 6-phosphogluconate dehydrogenase. The arrangement: method as in Ma X, et al. Pest Manag Sci, 2010, 66(7), 718-724. The following applies: ref Ma X, et al. Pest Manag Sci, 2010, 66(7), 718-724; cited from earlier work.
Series [5] has the same target. The arrangement: method as in Ma X, et al. Pest Manag Sci, 2010, 66(7), 718-724. The conditions noted are these: ref Ma X, et al. Pest Manag Sci, 2010, 66(7), 718-724; cited from earlier work. This is another data set of the same source.
A further series has as its system STAT3. Details: method as in Shin DS, et al. Cancer Res, 2009, 69(1), 193-202. The conditions noted are these: cell-free assay; ref Shin DS, et al. Cancer Res, 2009, 69(1), 193-202; cited from earlier work.
In a further series the test system is STAT5. The arrangement: method as in Shin DS, et al. Cancer Res, 2009, 69(1), 193-202. The following applies: ref Shin DS, et al. Cancer Res, 2009, 69(1), 193-202; cited from earlier work.
The subject of another series is STAT1. Details: method as in Shin DS, et al. Cancer Res, 2009, 69(1), 193-202. The conditions noted are these: ref Shin DS, et al. Cancer Res, 2009, 69(1), 193-202; cited from earlier work.
Series [6] deals with human adenovirus type 3 (HAdV-3). The arrangement: method as in Li M, et al. Neurosci Lett. 2016. The conditions noted are these: HAdV-3 in A549 cells; vendor library annotation; ref Li M, et al. Neurosci Lett. 2016; cited from earlier work.
Another series deals with A549 cells. The arrangement: method as in Li M, et al. Neurosci Lett. 2016. The conditions noted are these: vendor library annotation, ref Li M, et al. Neurosci Lett. 2016, read-out: LC50 (the source's name); cited from earlier work.

On to Rhapontigenin, for which the figures for the IC50 with cytochrome P450 1A1, in the series with HL-60R and with HepG2 were 0.4 µM, 48 µM and 48 µM, respectively.

With `C[C@@H]1OC(O[C@@H]2[C@@H](O)[C@H](OCCc3ccc(O)c(O)c3)O[C@H](CO[C@@H]3OC[C@@H](O)[C@H](O)[C@H]3O)[C@H]2OC(=O)/C=C/c2ccc(O)c(O)c2)[C@H](O)[C@H](O)[C@H]1O` (some centres unmarked) [Arenarioside], the concentration for 50% growth inhibition (GI50) in the series on B16F10 cell is 10 to 16 µM.

Consider `O=c1c(O)c(-c2ccc(O)cc2O)oc2cc(O)cc(O)c12` [Morin], for which, in the series on fatty acid synthase, the IC50 is 2.33 µM.

Consider `C=C(C)[C@@H]1CC[C@]2(C)CC[C@]3(C)[C@H](CC[C@@H]4[C@@]5(C)CCC(=O)C(C)(C)[C@@H]5CC[C@]43C)[C@@H]12` [LUPENONE], for which, in the series on PTP1B, the IC50 was 15.1 µM.

On to `O=C(OC[C@H]1OC(OC(=O)c2cc(O)c(O)c(O)c2)[C@H](OC(=O)c2cc(O)c(O)c(O)c2)[C@@H](OC(=O)c2cc(O)c(O)c(O)c2)[C@@H]1OC(=O)c1cc(O)c(O)c(O)c1)c1cc(O)c(O)c(O)c1` (some centres unmarked) [1,2,3,4,6-O-Pentagalloylglucose], for which, in the series with hepatitis B virus (HBV), the “reduction of the HBsAg level” value was 25%.

As for `COc1cc2oc(-c3ccccc3)cc(=O)c2c(O)c1O` [Negletein], in series [1], the IC50 is 3.89 µM.

With `CC(C)=CCC/C(C)=C/COc1ccc2ccc(=O)oc2c1` [Auraptene], at β-secretase (BACE1), the IC50 is 345 µM.

`C/C=C/C#CC#C/C=C/c1ccco1` [Atractylodin]: the IC50 on lipase was 39.1 µM. For the same molecule, the repellency with T. castaneum adults [2] is recorded as above 90%. Further, the LD50 in the series with T. castaneum adults [3] is 1.83 µg/cm.

Consider `CC1OC(OC2C(=O)c3c(O)cc(O)cc3OC2c2ccc(O)cc2)C(O)C(O)C1O` (centres unmarked) [Engeletin], for which, on aldose reductase, the IC50 is 1.16 µM. In addition, the “inhibition of PGE2 release, IC5” value in the series with PGE2 release is 19.6 µg/mL.

Take `C[C@H]1CC[C@@]2(OC1)O[C@H]1C[C@H]3[C@@H]4CC[C@@H]5C[C@@H](O[C@@H]6O[C@H](CO)[C@H](O)[C@H](O)[C@H]6O[C@@H]6O[C@H](CO)[C@@H](O)[C@H](O)[C@H]6O)CC[C@]5(C)[C@H]4CC[C@]3(C)[C@H]1[C@@H]2C` [Timosaponin AIII]: the values for the IC50 in the series on HeLa cells, in the series on BT474 cells and in the series on MDAMB231 were 10 µM, 2.5 µM and 6 µM, respectively.

With `Oc1ccc(OC2CCCCO2)cc1` (centres unmarked) [Deoxyarbutin], the IC50 on tyrosinase was 0.05 µM.

`C[C@]1(OC(=O)/C=C/c2ccccc2)C[C@@H](O)[C@]2(O)C=CO[C@@H](O[C@@H]3O[C@H](CO)[C@@H](O)[C@H](O)[C@H]3O)[C@@H]21` [Harpagoside]: in the series on seed germination, the “inhibition of seed germination” value is 1. Harpagoside has anti-inflammatory activity. 2. Harpagoside at 3 mM concentration, shows moderate inhibition of seed germination. 3. Harpagoside can inhibit lipopolysaccharide-induced mRNA levels and protein expression of cyclooxygenase-2 and inducible nitric oxide in HepG2 cells.

Take `O=C1Nc2ccccc2/C1=C1/Nc2ccccc2C1=O` [Indirubin]: the IC50 in the series with cyclin-dependent kinases was around 5 µM; with GSK-3β it was around 0.6 µM.

With `CC(C)c1cc2c(c(O)c1O)[C@@]13CCCC(C)(C)[C@@H]1C[C@@H]2OC3=O` [Carnosol], the EC50 in the series on TRPA1 is 12.5 µM.

Take `COc1cc(O)c2c(c1)C(=O)c1cc(C)cc(O)c1C2=O` [Rheochrysidin]: in series [4], the Kd is 26 µM. Further, the IC50 in series [5] was 38.5 µM.

Take `C[C@H]1COC2=C1C(=O)C(=O)c1c2ccc2c1CCCC2(C)C` [Cryptotanshinone]: the IC50 with STAT3 was 4.6 µM. For the same molecule, the “inhibition of STAT5” value in the series on STAT5 is recorded as “no inhibition”. The “inhibition of STAT1” value in the series with STAT1 was “no inhibition”.

Regarding `CC(C)(O)[C@@H]1CC[C@](C)([C@H]2[C@@H](O)C[C@@]3(C)[C@@H]4C[C@H](O[C@@H]5O[C@H](CO)[C@@H](O)[C@H](O)[C@H]5O)[C@H]5C(C)(C)[C@@H](O[C@@H]6OC[C@@H](O)[C@H](O)[C@H]6O)CC[C@@]56C[C@@]46CC[C@]23C)O1` [Astragaloside IV], the IC50 in [6] is 23 µM. Besides, the CC50 in the series with A549 cells is 865 µM.
